# Data as given in patent US20220339134A1, “VERY-LONG-CHAIN POLYUNSATURATED FATTY ACIDS, ELOVANOID HYDROXYLATED DERIVATIVES, AND METHODS OF USE” (Board of Supervisors of Louisiana State University and …, priority 2019, published 2022).
# Columns and labels:
# [1] = tested on: RPE and PRC; experiment: Subretinal injection of OAβ in WT mice +/- ELVs (RPE flat mount, OCT, qPCR, Western blot); type: in vivo; conditions: for OAβ-activated senescence program (p16INK4a, MMP1, p53, p21, p27, Il-6, SASP secretome) followed by RPE and PRC demise: summary of mouse and human RPE data
# From the text: (A) In vivo experimental design: 6-month-old C57BL/6J WT mice were divided into 7 groups (n=12/group): non-injected, PBS, OAβ only, OAβ+ELV-N-32, OAβ+ELV-N-34, ELV-N-32 only and ELV-N-34 only. On day 3, mRNA were isolated for Real-Time PCR. On day 7, mice were subjected to OCT and then eyes enucleated and processed for whole mount RPE staining and Western blots. (B) Whole flat mount of RPE with tight junction marker, Zonula occludens-1 (ZO-1) antibody. OAβ disrupted RPE morphology. (C) OAβ effects on retina and RPE by OCT. (D) Thickness of PRC layer was thinner in OAβ injected group. (E) RPE gene expression after Oaβ (1-42) injection and treatment with ELVs. (E-G) Gene expression in the same functional group were plotted. Senescence- and AMD-related genes (E), and collagenases, gelatinase, stromelysins and others matrix metalloproteinases (MMP) (F) and autophagy (G). (H) p16INK4a, a key marker for senescence, western blots of RPE. (I) Retina apoptosis gene expression after OAβ (1-42) injection and treatment with ELVs. (*P<0.05, student t-test).
# ELVs restore RPE morphology and reduce gene expression after subretinal injection of OAβ in WT mice. (A) Mice were divided into 7 groups: non-injected, PBS, OAβ only, OAβ+ELV-N-32, OAβ+ELV-N-34, ELV-N-32 only and ELV-N-34 only. On day 3, mRNA were isolated for RT-PCR. On day 7, mice were subjected to OCT and then eyes were enucleated and processed to whole mount RPE staining and Western blot. (B) Whole flat mount of RPE. OAβ disrupted RPE morphology. However, RPE were less damage in the ELVs treatment group as well as PBS, ELVs alone did non induce changes. (C) Evaluation the OAβ effects on retina and RPE by OCT. (D) The thickness of PRC was thin in the OAβ injected group. OAβ cause the cell death of PRC, as the thinner in OCT measurement. (E) RPE gene expression after OAβ (1-42) injection and treatment with ELVs. 3 days after injection, the RNAs from RPE were isolated, reverse transcribed into cDNA and subjected to RT-PCR with different primers. Genes in the same functional group were plotted in the same chart, including senescence- and AMD-related genes (E), and collagenases, gelatinase, stromelysins and others matrix metalloproteinases (MMP) (F) and autophagy (G). (H) p16INK4a western blots of RPE/Choroid. […] (I) Retina gene expression after OAβ (1-42) injection and treatment with ELVs. OAβ activates apoptosis genes in the retina. […] (*P<0.05, using student t-test comparison).
# All animal experiments were performed according to ARVO Statement for the Use of Animals in Ophthalmic and Vision Research, and the protocol was approved by LSU Health New Orleans' Institutional Animal Care and Use Committee (IACUC). 6-month-old 5×FAD mice (stock number: 34848-JAX, The Jackson Laboratory, Bar Harbor, Me., USA), co-overexpress FAD mutant forms of human amyloid precursor protein (the Swedish mutation: K670N, M671L; the Florida mutation: I716V; and the London mutation: V7171) and presenilin 1 (PS1, encoded by Psen1: M146L, L286V) transgenes under transcriptional control of the neuron-specific mouse Thy1 promoter. 5×FAD mice were hemizygotes with respect to the transgenes and non-transgenic WT littermates. Genotyping was performed by PCR of tail DNA. All analyses were carried out blind with respect to the mice genotype. For the subretinal injection, 6-month-old C57BL/6J mice were anesthetized by an intraperitoneal injection of ketamine/xylazine, pupils dilated with 1.0% tropicamide (Akorn, Ill., USA); and 0.5% Proparacaine Hydrochloride (Akorn) was applied for topical anesthesia. Eyes were punctured with a 30-gauge needle between the corneoscleral junction and the ora serrata into the vitreous cavity without disturbing the lens. Compounds were delivered to the subretinal region using a 33-gauge blunt needle attached to a 5p.1 Hamilton syringe (Hamilton Company, Reno, Nev., USA) under a dissecting microscope. Non-injected mice were used as negative control while the PBS injected mice were used for sham. […]
# [2] = tested on: db/db mice hypothalamus; experiment: IL6 (marker of SASP) induced by IL1β in diabetic mouse hypothalamus; type: cell-based
# From the text: Different effects have been observed in female and male mice.
# [3] = co-injected with OAβ subretinally, then topical ELV, day 7
structure (smiles),measurement,setting,value
CC/C=C\C[C@H](O)\C=C/C=C/C=C/[C@H](O)C/C=C\C/C=C\CCCCCCCCCCCCCCC(=O)O [ELV-N-34],PRC degeneration / ONL after ELV injected alone,"[1]; ELV alone, no OAβ, subretinal",did not yield PRC degeneration
same,"PRC protection (PRC layer, OCT)",[1]; [3],protection of PRC
same,RPE morphology (ZO-1 whole flat mount),[1]; [3],restoration of RPE morphology
same,p16INK4a protein (western blot of RPE/Choroid),"[1]; elevated by OAβ injection, day 7",down regulated
same,"OAβ-activated senescence program (p16INK4a, MMP1, p53, p21, p27, Il-6, SASP secretome) followed by RPE and PRC demise",[1],blunt these events and elicit protection to both cells
same,"OAβ-activated senescence program (p16INK4a, MMP1, p53, p21, p27, Il-6, SASP secretome) followed by RPE and PRC demise",[1]; listed as ELV 34,downregulatory mediators of OAβ-evoked senescence
same,"OAβ-activated senescence program (p16INK4a, MMP1, p53, p21, p27, Il-6, SASP secretome) followed by RPE and PRC demise",[1]; listed as elovanoid 34,blunt these events and elicits protection
same,levels of IL6 (marker of SASP),[2],reduced
